This experiment has as its target T1, human transferrin receptor (hTfR) (Homo sapiens, UniProt P02786).
T1 construct: made in house
Description: Evaluation of molecular interaction between transferrin receptor (hTfR) and peptide using surface plasmon resonance (SPR). It counts as binding. As for the experimental part:
Evaluation Test of Molecular Interaction Between Transferrin Receptor (hTfR) and Peptide Using Surface Plasmon Resonance (SPR)
The intermolecular interactions of various synthesized peptides with the transferrin receptor (hTfR) by surface plasmon resonance (SPR) of the peptides were tested by the methods described below. Specific test methods are shown below.
NTA sensor chip (Global Life Sciences Technologies Japan K.K.) was inserted into BiacoreT200 (Global Life Sciences Technologies Japan K.K.), then the priming operation was performed three times by using running buffer containing: 10 mM HEPES pH 8.0 (Nacalai Tesque, Inc.), 150 mM NaCl (Nacalai Tesque, Inc.), 0.05% Tween 20 (Nacalai Tesque, Inc.), 0.1% BSA (SIGMA-ALDRICH) and 1.0% DMSO (FUJIFILM Wako Pure Chemical Corporation), and equilibrated at a flow rate of 30 μL/min. 350 mM EDTA solution was reacted at a flow rate of 10 μL/min for 60 seconds, 0.5 mM […] solution (Kishida Chemical Co., Ltd.) was reacted at a flow rate of 10 μL/min for 60 seconds, and then the NTA sensor chip was washed with 3 mM EDTA solution (Nacalai Tesque, Inc.) at a flow rate of 10 μL/min for 60 seconds. After mixing 50 μL each of 60 mM EDC solution (Global Life Science Technologies Japan K.K.) and 650 mM NHS solution (Global Life Science Technologies Japan K.K.), the reaction was carried out at a flow rate of 10 μL/min for 420 seconds. 150 μL of 0.5 μM hTfR dimer solution was prepared by dilution with running buffer and reacted at a flow rate of 10 μL/min for 300 seconds to immobilize hTfR on the NTA sensor chip. For the human transferrin receptor (hTfR), recombinant hTfR described in Example 2 of WO2018/124121 was used. After immobilization, capping was performed by reacting with 1.0 M ethanolamine solution (Global Life Sciences Technologies Japan K.K.) at a flow rate of 10 μL/min for 420 seconds. Peptide lysate prepared in DMSO solution to 10 mM was diluted with running buffer to be a final concentration of 10 μM peptide lysate, then peptide solutions of 100 nM, 50 nM, 25 nM, 10 nM, and 5 nM were prepared. Using the above samples, the kinetics of the peptide against hTfR was obtained by SPR measurement.
The kinetic evaluation model was single-cycle kinetics, and curve fitting was performed using Biacore T200 Evaluation Software Version 3.0 (Global Life Science Technologies Japan K.K.). The binding of the peptide to hTfR was evaluated by performing curve fitting on the obtained sensorgram by least squares method and obtaining the KD value.
(Surface plasmon resonance follows binding to a sensor surface in real time, without labels.)

Where [1] appears, read: KD class for binding to hTfR by SPR, peptide with the linker shown in the same line, 'low signal indicates no activity', read-out: SPR.
Where [2] appears, read: surface plasmon resonance, binding to hTfR, KD class symbol, read-out: SPR (KD value).

Where two headings read alike, the source gives them in different places. Starred links: 1 amine or outer side, 2 acyl side, 3 side chain; linkers in the order of their positions; H or OH if unused. Positions of bridges follow the written chain, without caps; N, C: chain ends. Non-standard residues stand in square brackets, D forms with d. Residues, ends and D or L forms follow the SMILES beside them. *: point of attachment. Trp(1-CH2COOH) = N[C@@H](Cc1cn(CC(=O)O)c2ccccc12)C(=O)O; NMePhe(4-COOH) = CN[C@@H](Cc1ccc(C(=O)O)cc1)C(=O)O; X1 = O=C([C@H](Cc1cccc(C(=O)[*:3])c1)N[*:1])[*:2]; Trp(7-aza) = N[C@@H](Cc1c[nH]c2ncccc12)C(=O)O; NH(CH2CH2O)8Me = COCCOCCOCCOCCOCCOCCOCCOCCN*; NMePhe(3-Cl) = CN[C@@H](Cc1cccc(Cl)c1)C(=O)O; 3Pal(6-NH2) = Nc1ccc(C[C@H](N)C(=O)O)cn1; X2 = COCCOCCOCCOCCOCCOCCOCCOCCNC(=O)C*; NMeY = CN[C@@H](Cc1ccc(O)cc1)C(=O)O; 3Pal = N[C@@H](Cc1cccnc1)C(=O)O; 4Pal = N[C@@H](Cc1ccncc1)C(=O)O; PEG4 = NCCOCCOCCOCCOCCC(=O)O

T1 sequence (P02786 89-760 limits assumed): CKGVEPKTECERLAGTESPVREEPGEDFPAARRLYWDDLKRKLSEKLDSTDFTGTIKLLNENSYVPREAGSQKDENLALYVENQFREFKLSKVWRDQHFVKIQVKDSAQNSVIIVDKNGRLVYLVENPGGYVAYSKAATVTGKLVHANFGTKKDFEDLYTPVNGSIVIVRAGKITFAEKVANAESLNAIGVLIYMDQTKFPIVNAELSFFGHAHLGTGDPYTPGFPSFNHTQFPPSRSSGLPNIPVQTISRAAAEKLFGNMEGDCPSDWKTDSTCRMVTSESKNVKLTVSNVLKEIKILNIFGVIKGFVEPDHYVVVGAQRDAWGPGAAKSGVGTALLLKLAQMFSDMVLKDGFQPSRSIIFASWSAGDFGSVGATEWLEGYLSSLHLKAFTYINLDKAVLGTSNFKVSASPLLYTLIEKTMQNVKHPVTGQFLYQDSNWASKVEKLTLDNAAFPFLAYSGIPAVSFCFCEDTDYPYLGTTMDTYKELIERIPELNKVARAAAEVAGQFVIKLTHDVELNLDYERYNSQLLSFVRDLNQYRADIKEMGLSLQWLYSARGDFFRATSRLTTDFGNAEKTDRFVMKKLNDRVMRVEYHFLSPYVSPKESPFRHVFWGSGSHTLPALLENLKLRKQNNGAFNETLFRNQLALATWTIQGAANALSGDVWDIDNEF

For `CC[C@H](C)[C@@H]1NC(=O)[C@H](Cc2cccnc2)NC(=O)[C@H](Cc2ccc(O)cc2)NC(=O)[C@H](CC(N)=O)NC(=O)[C@H](Cc2cn(CC(=O)O)c3ccccc23)NC(=O)[C@H](C(C)C)NC(=O)[C@H](Cc2cccc(Cl)c2)N(C)C(=O)[C@H](C(C)C)NC(=O)[C@H](C)NC(=O)CSC[C@@H](C(=O)NCCOCCOCCOCCOCCC(N)=O)NC(=O)[C@H](Cc2ccc(O)cc2)N(C)C(=O)[C@H](Cc2ccccc2)NC(=O)[C@H](CCCNC(=N)N)NC(=O)[C@H](CCCNC(=N)N)NC(=O)[C@H]([C@@H](C)CC)NC1=O` [894_0333] ({CH2CO}-AV[NMePhe(3-Cl)]V[Trp(1-CH2COOH)]NY[3Pal]IIRRF[NMeY]C[PEG4]-NH2; thioether N-15), the Kd under setting [1] is 1 to 100 nM.
For `CC[C@H](C)[C@@H]1NC(=O)[C@H](Cc2ccncc2)NC(=O)[C@H](Cc2ccc(O)cc2)NC(=O)[C@H](CC(N)=O)NC(=O)[C@H](Cc2c[nH]c3ccccc23)NC(=O)[C@H](C(C)C)NC(=O)[C@H](Cc2cccc(Cl)c2)N(C)C(=O)[C@H](C(C)C)NC(=O)[C@H](C)NC(=O)CSC[C@@H](C(=O)NCCOCCOCCOCCOCCC(N)=O)NC(=O)[C@H](Cc2ccc(O)cc2)N(C)C(=O)[C@H](Cc2ccncc2)NC(=O)[C@H](CCCNC(=N)N)NC(=O)[C@H](CCCNC(=N)N)NC(=O)[C@H]([C@@H](C)CC)NC1=O` [compound 54] ({CH2CO}-AV[NMePhe(3-Cl)]VWNY[4Pal]IIRR[4Pal][NMeY]C[PEG4]-NH2; thioether N-15), the Kd under setting [2] lay in the range of 1 to 100 nM.
In the case of `CC[C@H](C)[C@@H]1NC(=O)[C@H](Cc2cccnc2)NC(=O)[C@H](Cc2ccc(N)nc2)NC(=O)[C@H](CC(N)=O)NC(=O)[C@H](Cc2c[nH]c3ccccc23)NC(=O)[C@H](C(C)C)NC(=O)[C@H](Cc2cccc(Cl)c2)N(C)C(=O)[C@H](C(C)C)NC(=O)[C@H](C)NC(=O)CSC[C@@H](C(=O)NCCOCCOCCOCCOCCC(N)=O)NC(=O)[C@H](Cc2ccc(O)cc2)N(C)C(=O)[C@H](Cc2ccccc2)NC(=O)[C@H](CCCNC(=N)N)NC(=O)[C@H](CCCNC(=N)N)NC(=O)[C@H]([C@@H](C)CC)NC1=O` [894_0357] ({CH2CO}-AV[NMePhe(3-Cl)]VWN[3Pal(6-NH2)][3Pal]IIRRF[NMeY]C[PEG4]-NH2; thioether N-15), under setting [1], the Kd lay within 1 to 100 nM.
Consider `CC[C@H](C)[C@@H]1NC(=O)[C@H](Cc2ccc(OC)cc2)NC(=O)[C@H](Cc2ccc(O)cc2)NC(=O)[C@H](CC(N)=O)NC(=O)[C@H](Cc2c[nH]c3ccccc23)NC(=O)[C@H](C(C)C)NC(=O)[C@H](Cc2cccc(Cl)c2)N(C)C(=O)[C@H](C(C)C)NC(=O)[C@H](C)NC(=O)CSC[C@@H](C(=O)NCC(=O)N[C@@H](CCCCN=[N+]=[N-])C(N)=O)NC(=O)[C@H](Cc2ccc(O)cc2)N(C)C(=O)[C@H](Cc2ccccc2)NC(=O)[C@H](CCCNC(=N)N)NC(=O)[C@H](CCCNC(=N)N)NC(=O)[C@H]([C@@H](C)CC)NC1=O` [compound 11], for which, under setting [2], the Kd is 1 to 100 nM.
With `CC[C@H](C)[C@@H]1NC(=O)[C@H](Cc2ccc(OCC(=O)NCCOCCOCCOCCOCCOCCOCCOCCOC)cc2)NC(=O)[C@H](Cc2ccc(O)cc2)NC(=O)[C@H](CC(N)=O)NC(=O)[C@H](Cc2c[nH]c3ncccc23)NC(=O)[C@H](C(C)C)NC(=O)[C@H](Cc2cccc(Cl)c2)N(C)C(=O)[C@H](C(C)C)NC(=O)[C@H](C)NC(=O)CSC[C@@H](C(=O)NCCOCCOCCOCCOCCC(N)=O)NC(=O)[C@H](Cc2ccc(C(=O)NCCOCCOCCOCCOCCOCCOCCOCCOC)cc2)N(C)C(=O)[C@H](Cc2cccc(C(=O)NCCOCCOCCOCCOCCOCCOCCOCCOC)c2)NC(=O)[C@H](CCC(N)=O)NC(=O)[C@H](CCC(N)=O)NC(=O)[C@H]([C@@H](C)CC)NC1=O` [compound 226] ({CH2CO}-AV[NMePhe(3-Cl)]V[Trp(7-aza)]NYY(X2)IIQQ[X1](NH(CH2CH2O)8Me)[NMePhe(4-COOH)](NH(CH2CH2O)8Me)C[PEG4]-NH2; thioether N-15), the Kd (peptide with linker, surface plasmon resonance, read-out: SPR (KD class for binding to hTfR)) lay in the range of 1 to 100 nM.

Source of the values: patent publication US20260116920A1, “HUMAN TRANSFERRIN RECEPTOR BINDING PEPTIDE” (PEPTIDREAM INC., priority 2021, published 2026).
